Positions count from the first letter of the chain named. Names may count otherwise.
Experiments:
PH0952ΔN = target: T1, PH0952ΔN (Pyrococcus horikoshii, UniProt O58663); test: X-ray crystal structure; conditions: 3.4 Å; ADP present in purification buffer; nucleotide-binding site of the NOD
T1 construct: gene PH0952; NBD 102-262, HD 263-316, WHD 317-393, arm 394-496, TPR sensor 497-748; from E. coli Rosetta (DE3), intein tag cleaved; monomeric resting form

MalT [1] = target: T2, MalT (Escherichia coli, UniProt P06993, M96C); test: analytical size-exclusion chromatography (multimerization); format: biochemical; conditions: reducing conditions
T2 construct: full-length, His6-tagged (pOM206, pET24a(+) derivative), purified from E. coli BL21 ΔmalT
T2 sequence (P06993 whole entry M96C): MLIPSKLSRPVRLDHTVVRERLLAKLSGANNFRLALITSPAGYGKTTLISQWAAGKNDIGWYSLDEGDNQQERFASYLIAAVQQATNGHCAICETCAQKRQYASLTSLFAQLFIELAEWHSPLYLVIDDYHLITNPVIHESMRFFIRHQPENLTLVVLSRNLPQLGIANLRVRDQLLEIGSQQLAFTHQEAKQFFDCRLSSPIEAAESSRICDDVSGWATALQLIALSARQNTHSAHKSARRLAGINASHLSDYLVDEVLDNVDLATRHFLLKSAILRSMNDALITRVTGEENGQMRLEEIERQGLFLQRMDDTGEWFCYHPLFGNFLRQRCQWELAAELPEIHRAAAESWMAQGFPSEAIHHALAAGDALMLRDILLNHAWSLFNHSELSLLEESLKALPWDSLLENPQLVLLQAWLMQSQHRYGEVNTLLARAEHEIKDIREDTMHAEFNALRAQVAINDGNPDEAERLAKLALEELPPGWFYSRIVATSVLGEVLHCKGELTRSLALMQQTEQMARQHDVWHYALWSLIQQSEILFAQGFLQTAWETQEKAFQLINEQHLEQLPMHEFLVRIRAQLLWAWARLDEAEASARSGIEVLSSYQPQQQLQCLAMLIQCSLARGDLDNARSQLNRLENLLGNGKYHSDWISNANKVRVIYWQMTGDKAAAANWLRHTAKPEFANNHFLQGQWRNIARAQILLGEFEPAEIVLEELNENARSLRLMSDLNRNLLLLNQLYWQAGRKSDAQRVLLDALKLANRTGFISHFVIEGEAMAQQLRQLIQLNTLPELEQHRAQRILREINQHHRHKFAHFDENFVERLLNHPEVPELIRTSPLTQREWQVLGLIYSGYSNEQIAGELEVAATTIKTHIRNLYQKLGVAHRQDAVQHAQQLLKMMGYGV

MalT [2] = target: T3, MalT (Escherichia coli, UniProt P06993, H562C); test: as above; format: biochemical; conditions: reducing conditions
T3 construct: full-length, His6-tagged (pOM206, pET24a(+) derivative), purified from E. coli BL21 ΔmalT
T3 sequence (P06993 whole entry H562C): as the sequence (P06993 whole entry M96C) above, with C96M, H562C counted along it

MalT [3] = target: T4, MalT (Escherichia coli, UniProt P06993); test: analytical size-exclusion chromatography (multimerization) and limited proteolysis; format: biochemical; conditions: with ATP; inducer; pH 8.0
T4 construct: full-length, His6-tagged (pOM206, pET24a(+) derivative), purified from E. coli BL21 ΔmalT

MalT [4] = target: T5, MalT (Escherichia coli, UniProt P06993, M96T/R171E); test: limited proteolysis (proteinase K); format: biochemical; conditions: 22 mM maltotriose; 0.44 mM ATP or ADP; pH 8.0, 25 °C
T5 construct: full-length, His6-tagged (pOM206, pET24a(+) derivative), purified from E. coli BL21 ΔmalT
T5 sequence (P06993 whole entry M96T/R171E): as the sequence (P06993 whole entry M96C) above, with C96T, R171E counted along it

MalT [5] = target: T6, MalT (Escherichia coli, UniProt P06993, R171E); test: limited proteolysis (proteinase K); format: biochemical; conditions: 22 mM maltotriose; 0.44 mM ATP or ADP; pH 8.0, 25 °C
T6 construct: full-length, His6-tagged (pOM206, pET24a(+) derivative), purified from E. coli BL21 ΔmalT
T6 sequence (P06993 whole entry R171E): as the sequence (P06993 whole entry M96C) above, with C96M, R171E counted along it

[6] = target: the molecule itself; test: SEC; analytical Superdex 200 PC3.2/30, room temperature; reducing conditions; with the inducer maltotriose (Supplementary Figure S9)
[7] = target: the molecule itself; test: SEC; analytical Superdex 200, room temperature; Tris-HCl 50 mM pH 8.0, 10% sucrose, 0.033 M K3 citrate, 10 mM Mg acetate, 0.1 mM EDTA, 1 mM DTT, 0.1 mM ADP; no maltotriose; high protein concentration (54 μM)

T1 sequence (O58663 entry or part of it, stated change not applied): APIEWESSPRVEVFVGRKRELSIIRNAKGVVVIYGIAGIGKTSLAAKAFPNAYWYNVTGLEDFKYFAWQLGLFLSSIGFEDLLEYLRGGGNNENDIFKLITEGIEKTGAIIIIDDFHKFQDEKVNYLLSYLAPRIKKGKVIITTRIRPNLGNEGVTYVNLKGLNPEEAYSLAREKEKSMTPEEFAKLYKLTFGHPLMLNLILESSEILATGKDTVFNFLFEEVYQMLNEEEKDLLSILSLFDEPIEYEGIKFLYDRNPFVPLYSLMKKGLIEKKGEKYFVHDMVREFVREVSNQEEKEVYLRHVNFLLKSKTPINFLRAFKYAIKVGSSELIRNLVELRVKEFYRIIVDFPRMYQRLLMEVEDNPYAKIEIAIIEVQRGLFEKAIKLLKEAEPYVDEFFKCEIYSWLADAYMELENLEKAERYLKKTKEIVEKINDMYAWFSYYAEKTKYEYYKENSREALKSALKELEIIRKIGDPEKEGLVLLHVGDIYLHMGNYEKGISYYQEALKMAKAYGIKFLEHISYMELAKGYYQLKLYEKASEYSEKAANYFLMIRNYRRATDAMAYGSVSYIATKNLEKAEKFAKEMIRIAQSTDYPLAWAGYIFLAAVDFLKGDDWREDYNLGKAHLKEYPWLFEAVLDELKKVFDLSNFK

How did the X-ray crystal structure (PH0952ΔN) turn out when `Nc1ncnc2c1ncn2[C@@H]1O[C@H](COP(=O)(O)OP(=O)(O)O)[C@@H](O)[C@H]1O` [ADP] was run?
The X-ray crystal structure was “a ligand was clearly visible in the experimental electron density map”.

For `OC[C@H]1O[C@H](O[C@H]2[C@H](O)[C@@H](O)[C@@H](O[C@H]3[C@H](O)[C@@H](O)C(O)O[C@@H]3CO)O[C@@H]2CO)[C@H](O)[C@@H](O)[C@@H]1O` (some centres unmarked) [maltotriose], which “analytical size-exclusion chromatography (multimerization)” value (MalT [1]) is on record?
Its value is “the four proteins were monomeric in the absence of the inducer, maltotriose”.

What about the “analytical size-exclusion chromatography (multimerization)” value (MalT [2]) of the same molecule?
Its value is “the four proteins were monomeric in the absence of the inducer, maltotriose”.

And the “analytical size-exclusion chromatography (multimerization) and limited proteolys” value (MalT [3])?
The value was “responded to its presence by multimerizing to the same extent”.

And the “limited proteolysis (proteinase K)” value (MalT [4])?
The value was “underwent the same maltotriose-induced conformational changes as MalT”.

What about the “limited proteolysis (proteinase K)” value (MalT [5]) of the same molecule?
Its value is “underwent the same maltotriose-induced conformational changes as MalT”.

B1: His6-tagged MalT (Escherichia coli maltose system regulator), wild type (natural protein, E. coli, UniProt P06993 1-901, looked up)
chain: MLIPSKLSRPVRLDHTVVRERLLAKLSGANNFRLALITSPAGYGKTTLISQWAAGKNDIGWYSLDEGDNQQERFASYLIAAVQQATNGHCAICETMAQKRQYASLTSLFAQLFIELAEWHSPLYLVIDDYHLITNPVIHESMRFFIRHQPENLTLVVLSRNLPQLGIANLRVRDQLLEIGSQQLAFTHQEAKQFFDCRLSSPIEAAESSRICDDVSGWATALQLIALSARQNTHSAHKSARRLAGINASHLSDYLVDEVLDNVDLATRHFLLKSAILRSMNDALITRVTGEENGQMRLEEIERQGLFLQRMDDTGEWFCYHPLFGNFLRQRCQWELAAELPEIHRAAAESWMAQGFPSEAIHHALAAGDALMLRDILLNHAWSLFNHSELSLLEESLKALPWDSLLENPQLVLLQAWLMQSQHRYGEVNTLLARAEHEIKDIREDTMHAEFNALRAQVAINDGNPDEAERLAKLALEELPPGWFYSRIVATSVLGEVLHCKGELTRSLALMQQTEQMARQHDVWHYALWSLIQQSEILFAQGFLQTAWETQEKAFQLINEQHLEQLPMHEFLVRIRAQLLWAWARLDEAEASARSGIEVLSSYQPQQQLQCLAMLIQCSLARGDLDNARSQLNRLENLLGNGKYHSDWISNANKVRVIYWQMTGDKAAAANWLRHTAKPEFANNHFLQGQWRNIARAQILLGEFEPAEIVLEELNENARSLRLMSDLNRNLLLLNQLYWQAGRKSDAQRVLLDALKLANRTGFISHFVIEGEAMAQQLRQLIQLNTLPELEQHRAQRILREINQHHRHKFAHFDENFVERLLNHPEVPELIRTSPLTQREWQVLGLIYSGYSNEQIAGELEVAATTIKTHIRNLYQKLGVAHRQDAVQHAQQLLKMMGYGV
notes: MalT, E. coli, His-tagged version encoded by pOM206 (pET24a(+) derivative); Purified in two buffers (with ATP/KCl; or K3 citrate without nucleotide) to serve as control for the variants; Details of the plasmid are in the Supplementary Materials and Methods; also called wt MalT; wild-type MalT; source: E. coli pop8012 (a BL21 ΔmalT strain) with pOM206, purified (nickel-agarose chromatography, …)
Does B1 bind [6]?
Result: binds

B2: His6-tagged MalT^H562C (natural protein, E. coli, UniProt P06993 1-901, looked up)
chain: B1 chain with H562C
notes: MalT, E. coli, His-tagged, pOM206 derivative; source: E. coli pop8012 (a BL21 ΔmalT strain) with a pOM206 derivative, purified (nickel-agarose chromatography, Superdex 200)
Does B2 bind [6]?
Result: binds

B3: His6-tagged MalT^M96C,H562C (natural protein, E. coli, UniProt P06993 1-901, looked up)
chain: B1 chain with M96C, H562C
notes: as for B2
Does B3 bind [6]?
Result: binds

B4: His6-tagged MalT^M96C (natural protein, E. coli, UniProt P06993 1-901, looked up)
chain: B1 chain with M96C
notes: as for B2
Does B4 bind [6]?
Result: binds

B5: His6-tagged MalT^M96T (natural protein, E. coli, UniProt P06993 1-901, looked up)
chain: B1 chain with M96T
notes: MalT, E. coli, His-tagged, pOM206 derivative; About 20% aggregated after purification without nucleotide; concentration was corrected for this; also called M96T variant
Does B5 bind [7]?
Result: binds
